According to patent publication US20230381157A1, “RIFABUTIN FOR THE TREATMENT OF ACINETOBACTER BAUMANNII” (University of Southern California, priority 2018, published 2023):
Values after ≈ are worked out from the molar mass of the structure shown. Read-outs that look alike come from different tables or passages of the source.

How the values were obtained:
[1] = tested on: A. baumannii AB5075 transposon disruption mutants; experiment: microbe, parasite or virus in culture; assay type: cell-based, Acinetobacter baumannii; settings: for MIC: Acinetobacter baumannii
Acinetobacter baumannii = experiment: Galleria mellonella infection model; assay type: in vivo
A. baumannii LAC-4 = assay type: in vivo, mouse; settings: C3H mice, 10 mg/kg/daily or 1 mg/kg for 3 days, listed as RBT
[2] = Murine neuropenic lung infection model; assay type: in vivo, mouse
A. baumannii HUMC1 = experiment: Time kill assay in RPMI with or without amino acids; assay type: cell-based, Acinetobacter baumannii; settings: RPMI alone vs RPMI with amino acids; 8 and 24 hrs
HEK293T = experiment: Specificity: mammalian cell cytotoxicity / inhibition of bacteria growth (CC50/IC50)

`CO[C@H]1/C=C/O[C@@]2(C)Oc3c(C)c(O)c4c(c3C2=O)C2=NC3(CCN(CC(C)C)CC3)NC2=C(NC(=O)/C(C)=C\C=C\[C@H](C)[C@H](O)[C@@H](C)[C@@H](O)[C@@H](C)[C@H](OC(C)=O)[C@@H]1C)C4=O` [rifabutin] showed a Rifabutin MIC ([1]; AB06695, ABUW_2539, MHII) of 3.13 µg/mL, a Rifabutin MIC ([1]; AB06695, ABUW_2539, RPMI) of 0.05 µg/mL and a Rifabutin MIC ([1]; AB06731, ABUW_2557 (hypothetical protein(epoxyqueuosine reductase QueH)), MHII) of 3.13 µg/mL. It also gave a Rifabutin MIC ([1]; AB06731, ABUW_2557 (hypothetical protein(epoxyqueuosine reductase QueH)), RPMI) of 0.05 µg/mL, a Rifabutin MIC ([1]; AB06732, ABUW_2557, MHII) of 6.25 µg/mL and a Rifabutin MIC ([1]; AB06732, ABUW_2557, RPMI) of 0.05 µg/mL. It also gave a Rifabutin MIC ([1]; AB06821, ABUW_2586 (allophanate hydrolase), MHII) of 3.13 µg/mL, a Rifabutin MIC ([1]; AB06821, ABUW_2586 (allophanate hydrolase), RPMI) of 0.05 µg/mL and a Rifabutin MIC ([1]; AB06822, ABUW_2586, MHII) of 3.13 µg/mL. For the same molecule, the Rifabutin MIC ([1]; AB06822, ABUW_2586, RPMI) was 0.05 µg/mL, the “Rifabutin MIC” value ([1]; AB07354, disrupted gene aroP, RPMI, listed as RBT) was 0.05 µg/mL and the “Rifabutin MIC” value ([1]; AB07356, disrupted gene aroP, RPMI, listed as RBT) was 0.05 µg/mL. For the same molecule, the Rifabutin MIC ([1]; AB07566, ABUW_2893 (hypothetical protein), MHII) was 0.78 µg/mL, the Rifabutin MIC ([1]; AB07566, ABUW_2893 (hypothetical protein), RPMI) was 0.05 µg/mL and the Rifabutin MIC ([1]; AB07567, ABUW_2893, MHII) was 0.78 µg/mL. For the same molecule, the Rifabutin MIC ([1]; AB07567, ABUW_2893, RPMI) was 0.05 µg/mL, the “Rifabutin MIC” value ([1]; AB07813, disrupted gene mtr, RPMI, listed as RBT) was 0.05 µg/mL and the Rifabutin MIC ([1]; AB09112, ABUW_3470 (Zn-dependent hydrolase), MHII) was 0.78 µg/mL. The Rifabutin MIC ([1]; AB09112, ABUW_3470 (Zn-dependent hydrolase), RPMI) was 0.05 µg/mL, the Rifabutin MIC ([1]; AB09114, ABUW_3470, MHII) was 0.78 µg/mL and the Rifabutin MIC ([1]; AB09114, ABUW_3470, RPMI) was 0.05 µg/mL. For the same molecule, the “Rifabutin MIC” value ([1]; AB09979, disrupted gene aroP, RPMI, listed as RBT) was 0.05 µg/mL, the “Rifabutin MIC” value ([1]; AB09980, disrupted gene tryP, RPMI, listed as RBT) was 0.05 µg/mL and the “Rifabutin MIC” value ([1]; AB09982, disrupted gene tryP, RPMI, listed as RBT) was 0.05 µg/mL. The Rifabutin MIC ([1]; AB10057, ABUW_3811 (DID), MHII) was 3.13 µg/mL, the Rifabutin MIC ([1]; AB10057, ABUW_3811 (DID), RPMI) was 0.05 µg/mL and the Rifabutin MIC ([1]; AB10058, ABUW_3811, MHII) was 3.13 µg/mL. It also gave a Rifabutin MIC ([1]; AB10058, ABUW_3811, RPMI) of 0.05 µg/mL, an MIC ([1]; read-out: Rifabutin MIC, AB00188, disrupted gene aroP, MHII) of 3.13 µg/mL (≈ 3.7 µM) and an MIC ([1]; read-out: Rifabutin MIC, AB00188, disrupted gene aroP, RPMI) of under 0.05 µg/mL. The MIC ([1]; read-out: Rifabutin MIC, AB00190, disrupted gene aroP, MHII) was 6.25 µg/mL (≈ 7.38 µM), the MIC ([1]; read-out: Rifabutin MIC, AB00190, disrupted gene aroP, RPMI) was under 0.05 µg/mL and the MIC ([1]; read-out: Rifabutin MIC, AB00215, disrupted gene tryP, MHII) was 6.25 µg/mL (≈ 7.38 µM). For the same molecule, the MIC ([1]; read-out: Rifabutin MIC, AB00215, disrupted gene tryP, RPMI) was under 0.05 µg/mL, the MIC ([1]; read-out: Rifabutin MIC, AB00216, disrupted gene tryP, MHII) was 1.56 µg/mL (≈ 1.84 µM) and the MIC ([1]; read-out: Rifabutin MIC, AB00216, disrupted gene tryP, RPMI) was under 0.05 µg/mL. It also gave an MIC ([1]; read-out: Rifabutin MIC, AB02204, disrupted gene aroP, MHII) of 6.25 µg/mL (≈ 7.38 µM), an MIC ([1]; read-out: Rifabutin MIC, AB02204, disrupted gene aroP, RPMI) of under 0.05 µg/mL and an MIC ([1]; read-out: Rifabutin MIC, AB02205, disrupted gene aroP, MHII) of 3.13 µg/mL (≈ 3.7 µM). It also gave an MIC ([1]; read-out: Rifabutin MIC, AB02205, disrupted gene aroP, RPMI) of under 0.05 µg/mL, an MIC ([1]; read-out: Rifabutin MIC, AB03015, disrupted gene aroP, MHII) of 6.25 µg/mL (≈ 7.38 µM) and an MIC ([1]; read-out: Rifabutin MIC, AB03015, disrupted gene aroP, RPMI) of under 0.05 µg/mL. It also gave an MIC ([1]; read-out: Rifabutin MIC, AB03608, disrupted gene hisJ, MHII) of 3.13 µg/mL (≈ 3.7 µM), an MIC ([1]; read-out: Rifabutin MIC, AB03608, disrupted gene hisJ, RPMI) of under 0.05 µg/mL and an MIC ([1]; read-out: Rifabutin MIC, AB03612, disrupted gene hisM, MHII) of 3.13 µg/mL (≈ 3.7 µM). For the same molecule, the MIC ([1]; read-out: Rifabutin MIC, AB03612, disrupted gene hisM, RPMI) was under 0.05 µg/mL, the MIC ([1]; read-out: Rifabutin MIC, AB03616, disrupted gene hisM, MHII) was 6.25 µg/mL (≈ 7.38 µM) and the MIC ([1]; read-out: Rifabutin MIC, AB03616, disrupted gene hisM, RPMI) was under 0.05 µg/mL. For the same molecule, the MIC ([1]; read-out: Rifabutin MIC, AB03618, disrupted gene hisM, MHII) was 6.25 µg/mL (≈ 7.38 µM), the MIC ([1]; read-out: Rifabutin MIC, AB03618, disrupted gene hisM, RPMI) was under 0.05 µg/mL and the MIC ([1]; read-out: Rifabutin MIC, AB5075-UW (parent strain), MHII) was 6.25 µg/mL (≈ 7.38 µM). For the same molecule, the MIC ([1]; read-out: Rifabutin MIC, AB5075-UW (parent strain), RPMI) was under 0.05 µg/mL, the MIC ([1]; read-out: Rifabutin MIC, AB06105, disrupted gene aroP, MHII) was 3.13 µg/mL (≈ 3.7 µM) and the MIC ([1]; read-out: Rifabutin MIC, AB06105, disrupted gene aroP, RPMI) was under 0.05 µg/mL. For the same molecule, the MIC ([1]; read-out: Rifabutin MIC, AB06383, disrupted gene hisJ, MHII) was 6.25 µg/mL (≈ 7.38 µM), the MIC ([1]; read-out: Rifabutin MIC, AB06383, disrupted gene hisJ, RPMI) was under 0.05 µg/mL and the MIC ([1]; read-out: Rifabutin MIC, AB06386, disrupted gene hisP, MHII) was 0.78 µg/mL (≈ 0.921 µM). The MIC ([1]; read-out: Rifabutin MIC, AB06386, disrupted gene hisP, RPMI) was under 0.05 µg/mL, the MIC ([1]; read-out: Rifabutin MIC, AB06392, disrupted gene hisP, MHII) was 0.78 µg/mL (≈ 0.921 µM) and the MIC ([1]; read-out: Rifabutin MIC, AB06392, disrupted gene hisP, RPMI) was under 0.05 µg/mL. The MIC ([1]; read-out: Rifabutin MIC, AB07354, disrupted gene aroP, MHII) was 6.25 µg/mL (≈ 7.38 µM), the MIC ([1]; read-out: Rifabutin MIC, AB07354, disrupted gene aroP, RPMI) was under 0.05 µg/mL and the MIC ([1]; read-out: Rifabutin MIC, AB07356, disrupted gene aroP, MHII) was 1.56 µg/mL (≈ 1.84 µM). The MIC ([1]; read-out: Rifabutin MIC, AB07356, disrupted gene aroP, RPMI) was under 0.05 µg/mL, the MIC ([1]; read-out: Rifabutin MIC, AB07813, disrupted gene mtr, MHII) was 25 µg/mL (≈ 29.5 µM) and the MIC ([1]; read-out: Rifabutin MIC, AB07813, disrupted gene mtr, RPMI) was under 0.05 µg/mL. For the same molecule, the MIC ([1]; read-out: Rifabutin MIC, AB09979, disrupted gene aroP, MHII) was 0.78 µg/mL (≈ 0.921 µM), the MIC ([1]; read-out: Rifabutin MIC, AB09979, disrupted gene aroP, RPMI) was under 0.05 µg/mL and the MIC ([1]; read-out: Rifabutin MIC, AB09980, disrupted gene tryP, MHII) was 3.13 µg/mL (≈ 3.7 µM). For the same molecule, the MIC ([1]; read-out: Rifabutin MIC, AB09980, disrupted gene tryP, RPMI) was under 0.05 µg/mL, the MIC ([1]; read-out: Rifabutin MIC, AB09982, disrupted gene tryP, MHII) was 6.25 µg/mL (≈ 7.38 µM) and the MIC ([1]; read-out: Rifabutin MIC, AB09982, disrupted gene tryP, RPMI) was under 0.05 µg/mL. The “protection, multiple doses” value (Acinetobacter baumannii; G. mellonella infection model) was “protective at significantly lower doses as compared to RIF”, the “lowest efficacious dose (efficacious at doses as low as)” value (Acinetobacter baumannii; Galleria mellonella, dose-response) was 0.1 mg/kg and the “efficacy RBT vs RIF” value (A. baumannii LAC-4) was “no difference in efficacy”. For the same molecule, the “efficacy vs RIF” value [2] was “more effective as compared to RIF”, the “reduction in CFUs (time kill)” value (A. baumannii HUMC1) was “greater reduction in CFUs” and the “Specificity HEK293T (CC50/IC50)” value (HEK293T; IC50 vs A. baumannii ATCC 17978, RPMI + 50% serum) was 506006.298. For the same molecule, the “Specificity HEK293T (CC50/IC50)” value (HEK293T; IC50 vs A. baumannii ATCC 17978, RPMI alone) was 1961.478, the “Specificity HEK293T (CC50/IC50)” value (HEK293T; IC50 vs A. baumannii HUMC1, RPMI + 50% serum) was 97331.320 and the “Specificity HEK293T (CC50/IC50)” value (HEK293T; IC50 vs A. baumannii HUMC1, RPMI alone) was 33559.242. For the same molecule, the “Specificity HEK293T (CC50/IC50)” value (HEK293T; top screen hits, IC50 against A. baumannii HUMC1 in 50% serum) was 148.31.
